Results as given in patent publication US5817766A, “Reagents for a cannabinoid immunoassay” (Roche Diagnostic Systems, Inc., priority 1995, dated 1998).

How the values were obtained:
MoAb 11E.2 = experiment: MIRA assay ABUSCREEN 100 TEST ONLINE KIT for cannabinoids, MoAb 11E.2; format: binding, Murine; conditions: commercial MIRA assay; (II) = 100 by definition; IgA from immunization with (VIII) alone
Excerpt: (§1) Table 2 below illustrates how a novel clone (11A6) derived by using the triple sequential immunization procedure described herein performs in an actual commercial MIRA (Roche Diagnostic Systems, Inc., Branchburg, N.J.) assay ABUSCREEN® 100 TEST ONLINE™ KIT (Roche Diagnostic Systems, Inc., Branchburg, N.J. immunoassay) for cannabinoids. Example 20 describes the reagents contained in Roche's commercial Abuscreen® 100 Test Online™ Kit, except that the antibody has been replaced by a novel antibody according to this invention. […] Both tables also report the corresponding results using the monoclonal antibody (11E.2) derived from immunization with a single immunogen (immunogen (VIII)).
(§2) In Table 2, MoAb 11E.2 is an IgA (dimeric) antibody, while MoAB 11A6 is an IgG (monomeric) antibody. In order to agglutinate the microparticles included in the current commercial MIRA assay when 11A6 is used, inclusion of an anti-IgG antibody (commercially available, e.g., from Biodesign Int., Kennebunk, Me. 04043, USA) was required.
(§3) This example describes the reagents contained in Roche's ABUSCREEN® 100 TEST ONLINE™ KIT (Roche Diagnostic Systems, Inc., Branchburg, N.J. immunoassay) for cannabinoids.
(§4) 1. Antibody Reagent: A cannabinoid monoclonal antibody (IgG) with a secondary antibody adjusted in concentration to give the best dynamic standard curve with desired performance characteristics around the assay cutoff. This antibody is diluted in an antibody diluent containing: 50 mM HEPES, 0.1% BSA, 0.5% sodium chloride, 0.09% sodium azide and adjusted to a pH of 6.5.
(§5) 2. Microparticle Reagent: Conjugated cannabinoids derivative microparticle in a buffer containing 10 mM kPi pH 7.5 and 0.09% sodium Azide (supplied in kit).
(§6) 3. Sample Diluent: Buffer containing 50 mM PIPES pH 7.0, 2.5% PVP, 2.0% Sodium Chloride and 0.09% sodium azide (supplied in kit).
(§7) An assay using the above reagents is performed pursuant to the directions stated in the package insert for the commercially available Roche Abuscreen® Online™ 100 test kit for cannabinoids.

MoAb 11A6 = experiment: MIRA assay ABUSCREEN 100 TEST ONLINE KIT for cannabinoids, MoAb 11A6 with anti-IgG; format: binding, Murine; conditions: commercial MIRA assay; (II) = 100 by definition; IgG from triple sequential immunization
Excerpt: as §1, §2, §3, §4, §5, §6, §7

Structure (SMILES) | CROSS REACTIVITY (%) MoAb 11E.2 (MoAb 11E.2) [%] | CROSS REACTIVITY (%) MoAb 11A6 with anti-IgG (MoAb 11A6) [%]
CCCCCc1cc(O)c2c(c1)OC(C)(C)[C@@H]1CCC(C)=C[C@@H]21 [(-)-Δ^9 -THC, Δ^9 -tetrahydrocannabinol] | 7.6 | 7.3
CCCCCc1cc(O)c2c(c1)OC(C)(C)[C@@H]1CCC(C(=O)O)=C[C@@H]21 [(-)-Δ^9-11-nor-9-COOH-THC (II), Δ^9-11-nor-9-carboxy-THC] | 100 | 100
CCCCCc1cc(O)c2c(c1)OC(C)(C)c1ccc(C)cc1-2 [Cannabinol] | 0.6 | 1.6
CCCCCc1cc(O)c2c(c1)OC(C)(C)[C@@H]1C[C@H](O)C(C)=C[C@@H]21 [(-)-8α-Hydroxy-Δ^9 -THC (VI), (-)-8α-Hydroxy-Δ^9 -THC] | 60 | 71
CCCCCc1cc(O)c2c(c1)OC(C)(C)c1ccc(CO)cc1-2 [11-Hydroxycannabinol] | 16 | 35
C=C(C)[C@@H]1CCC(C)=C[C@H]1c1c(O)cc(CCCCC)cc1O [Cannabidiol] | < 0.1 | < 0.1
CCCCCc1cc(O)c2c(c1)OC(C)(C)[C@@H]1CCC(CO)=C[C@@H]21 [(-)-11-Hydroxy-Δ^9 -THC (V), (-)-11-Hydroxy-Δ^9 -THC] | 23 | 32
CCCCCc1cc(O)c2c(c1)OC(C)(C)[C@@H]1C[C@@H](O)C(CO)=C[C@@H]21 [(-)-8β,11-Dihydroxy-Δ^9 -THC (VII), (-)-8β,11-Dihydroxy-Δ^9 -THC] | 14 | 36
